Test results from article PMC11596972, “Synthesis and Antimicrobial Activity of 3-Alkylidene-2-Indolone Derivatives” (Molecules, 2024).
In brackets after ≈: the same amount, converted by molar mass. Like-named read-outs stand apart in the source and are kept apart here.

How the values were obtained:
E. coli ATCC 25922 = assay: MIC, double dilution method, E. coli ATCC 25922; assay type: cell-based; details: Escherichia coli
S. aureus ATCC 6538 = assay: MIC, double dilution method, S. aureus ATCC 6538; assay type: cell-based; details: Staphylococcus aureus, ATCC6538, 24 h
S. aureus 4220 = assay: MIC, double dilution method, S. aureus 4220; assay type: cell-based; details: Staphylococcus aureus, 4220, 24 h
P. aeruginosa CMCC 10211 = assay: MIC, double dilution method, P. aeruginosa CMCC 10211; assay type: cell-based; details: Pseudomonas aeruginosa
MRSA ATCC 43300 = assay: MIC, double dilution method, MRSA ATCC 43300; assay type: cell-based, Methicillin-resistant Staphylococcus aureus; details: MRSA ATCC 43300, Gram-positive, 24 h culture
C. albicans CMCC 98001 = assay: MIC, double dilution method, C. albicans CMCC 98001; assay type: cell-based, Candida albicans; details: for MIC: C. albicans CMCC 98001, fungus, 24 h culture; for antifungal activity (class in words): C. albicans CMCC 98001
E. coli 1924 = assay: MIC, double dilution method, E. coli 1924; assay type: cell-based, Escherichia coli
[1] = ATCC25922, E. coli ATCC 25922, Gram-negative, 24 h culture, read-out: MIC
[2] = S. aureus ATCC 6538, Gram-positive, 24 h culture, read-out: MIC
[3] = S. aureus 4220, Gram-positive, 24 h culture, read-out: MIC
[4] = CMCC10211, P. aeruginosa CMCC 10211, Gram-negative, 24 h culture, read-out: MIC
[5] = Staphylococcus aureus, 24 h, read-out: MIC
[6] = Candida albicans, CMCC98001, 24 h, read-out: MIC
[7] = Escherichia coli, E. coli 1924, Gram-negative, 24 h culture, read-out: MIC
[8] = Candida albicans, CMCC98001, 24 h

Compound | MIC (E. coli ATCC 25922; [1]) [µg/mL] | MIC (S. aureus ATCC 6538; [2]) [µg/mL] | MIC (S. aureus 4220; [3]) [µg/mL] | MIC (P. aeruginosa CMCC 10211; [4]) [µg/mL] | MIC (MRSA ATCC 43300; [5]) [µg/mL] | MIC (C. albicans CMCC 98001; [6]) [µg/mL] | MIC (E. coli 1924; [7]) [µg/mL] | antifungal activity (class in words) (C. albicans CMCC 98001) | MIC (C. albicans CMCC 98001) [µg/mL] | MIC (E. coli ATCC 25922; ATCC25922, 24 h) [µg/mL] | MIC (S. aureus ATCC 6538) [µg/mL] | MIC (S. aureus 4220) [µg/mL] | MIC (P. aeruginosa CMCC 10211; CMCC10211, 24 h) [µg/mL] | MIC (MRSA ATCC 43300; Staphylococcus aureus, 24 h) [µg/mL] | MIC (C. albicans CMCC 98001; [8]) [µg/mL] | MIC (E. coli 1924; Escherichia coli, 1924, 24 h) [µg/mL] | MIC (MRSA ATCC 43300) [µg/mL] | MIC (MRSA ATCC 43300; listed as 10v) [µg/mL]
C/C(O)=C1/C(=O)N(C)c2c(C)cccc21 [Compound 5b, (Z)-3-(1-hydroxyethylidene)-1,7-dimethylindolin-2-one] | 64 (≈ 315 µM) | 64 (≈ 315 µM) | > 64 | 64 (≈ 315 µM) | > 64 | 32 (≈ 157 µM) | 32 (≈ 157 µM) |  |  |  |  |  |  |  |  |  |  | 
C/C(O)=C1/C(=O)N(C)c2cc(C)ccc21 [Compound 5c, (Z)-3-(1-hydroxyethylidene)-1,6-dimethylindolin-2-one] | 64 (≈ 315 µM) | 64 (≈ 315 µM) | > 64 | 64 (≈ 315 µM) | > 64 | 16 (≈ 78.7 µM) | 16 (≈ 78.7 µM) |  |  |  |  |  |  |  |  |  |  | 
C/C(O)=C1/C(=O)N(C)c2ccc(C)cc21 [Compound 5d, (Z)-3-(1-hydroxyethylidene)-1,5-dimethylindolin-2-one] | > 64 | 64 (≈ 315 µM) |  | 64 (≈ 315 µM) | > 64 |  | 2 (≈ 9.84 µM) | moderate antifungal activity |  |  |  |  |  |  |  |  |  | 
C/C(O)=C1/C(=O)N(C)c2c(F)cccc21 [Compound 5e, (Z)-7-fluoro-3-(1-hydroxyethylidene)-1-methylindolin-2-one] | > 64 | 64 (≈ 309 µM) |  | > 64 | 64 (≈ 309 µM) | 32 (≈ 154 µM) | 16 (≈ 77.2 µM) |  |  |  |  |  |  |  |  |  |  | 
C/C(O)=C1/C(=O)N(C)c2cc(F)ccc21 [Compound 5f, (Z)-6-fluoro-3-(1-hydroxyethylidene)-1-methylindolin-2-one] | > 64 | > 64 | > 64 | > 64 | > 64 | 64 (≈ 309 µM) | 32 (≈ 154 µM) |  |  |  |  |  |  |  |  |  |  | 
C/C(O)=C1/C(=O)N(C)c2ccc(F)cc21 [Compound 5g, (Z)-5-fluoro-3-(1-hydroxyethylidene)-1-methylindolin-2-one] | > 64 | 64 (≈ 309 µM) | > 64 | > 64 | > 64 | 32 (≈ 154 µM) | 64 (≈ 309 µM) |  |  |  |  |  |  |  |  |  |  | 
C/C(O)=C1/C(=O)N(C)c2cccc(F)c21 [Compound 5h, (Z)-4-fluoro-3-(1-hydroxyethylidene)-1-methylindolin-2-one] | > 64 | > 64 | 64 (≈ 309 µM) | > 64 | > 64 | 8 to 16 (≈ 38.6 to 77.2 µM) | 32 (≈ 154 µM) | moderate antifungal activity | 16 (≈ 77.2 µM) |  |  |  |  |  |  |  |  | 
C/C(O)=C1/C(=O)N(C)c2c(Cl)cccc21 [Compound 5i, (Z)-7-chloro-3-(1-hydroxyethylidene)-1-methylindolin-2-one] | > 64 | 32 (≈ 143 µM) | 32 (≈ 143 µM) | 64 (≈ 286 µM) | 64 (≈ 286 µM) | 64 (≈ 286 µM) | 8 (≈ 35.8 µM) |  |  |  |  |  |  |  |  |  |  | 
C/C(O)=C1/C(=O)N(C)c2cc(Cl)ccc21 [Compound 5j, (Z)-6-chloro-3-(1-hydroxyethylidene)-1-methylindolin-2-one] | > 64 |  | 32 (≈ 143 µM) | > 64 | > 64 | 64 (≈ 286 µM) | 8 (≈ 35.8 µM) |  |  |  |  |  |  |  |  |  |  | 
C/C(O)=C1/C(=O)N(C)c2ccc(Cl)cc21 [Compound 5k, (Z)-5-chloro-3-(1-hydroxyethylidene)-1-methylindolin-2-one] | > 64 | 16 (≈ 71.5 µM) |  | > 64 | > 64 | 32 (≈ 143 µM) | 1 (≈ 4.47 µM) |  |  |  |  |  |  |  |  |  |  | 
C/C(O)=C1/C(=O)N(C)c2c(Br)cccc21 [Compound 5l, (Z)-7-bromo-3-(1-hydroxyethylidene)-1-methylindolin-2-one] | > 64 | 64 (≈ 239 µM) | 32 (≈ 119 µM) | > 64 | 64 (≈ 239 µM) | 64 (≈ 239 µM) | 8 (≈ 29.8 µM) |  |  |  |  |  |  |  |  |  |  | 
C/C(O)=C1/C(=O)N(C)c2cc(Br)ccc21 [Compound 5m, (Z)-6-bromo-3-(1-hydroxyethylidene)-1-methylindolin-2-one] | > 64 | 32 (≈ 119 µM) | > 64 | > 64 | 64 (≈ 239 µM) | 64 (≈ 239 µM) | 16 (≈ 59.7 µM) |  |  |  |  |  |  |  |  |  |  | 
C/C(O)=C1/C(=O)N(C)c2ccc(Br)cc21 [Compound 5n, (Z)-5-bromo-3-(1-hydroxyethylidene)-1-methylindolin-2-one] | > 64 | 32 (≈ 119 µM) | 32 (≈ 119 µM) | > 64 | > 64 | 64 (≈ 239 µM) | 8 (≈ 29.8 µM) |  |  |  |  |  |  |  |  |  |  | 
COc1cccc2c1N(C)C(=O)/C2=C(/C)O [Compound 5o, (Z)-3-(1-hydroxyethylidene)-7-methoxy-1-methylindolin-2-one] | > 64 | > 64 | > 64 | 64 (≈ 292 µM) | 64 (≈ 292 µM) | 32 (≈ 146 µM) | 16 (≈ 73 µM) |  |  |  |  |  |  |  |  |  |  | 
C/C(O)=C1/C(=O)N(C)c2ccc(C#N)cc21 [Compound 5p, (Z)-3-(1-hydroxyethylidene)-1-methyl-2-oxoindoline-5-carbonitrile] | > 64 | 64 (≈ 299 µM) | 64 (≈ 299 µM) | > 64 | > 64 | > 64 | > 64 |  |  |  |  |  |  |  |  |  |  | 
C/C(O)=C1/C(=O)N(C)c2ccc(C(F)(F)F)cc21 [Compound 5q, (Z)-3-(1-hydroxyethylidene)-1-methyl-5-(trifluoromethyl)indolin-2-one] | > 64 |  | 64 (≈ 249 µM) | > 64 | > 64 | > 64 | 16 (≈ 62.2 µM) |  |  |  |  |  |  |  |  |  |  | 
C/C(O)=C1/C(=O)N(C)c2cc(C(F)(F)F)ccc21 [Compound 5r, (Z)-3-(1-hydroxyethylidene)-1-methyl-6-(trifluoromethyl)indolin-2-one] | > 64 |  | 64 (≈ 249 µM) | > 64 |  | 8 to 16 (≈ 31.1 to 62.2 µM) | > 64 | moderate antifungal activity | 16 (≈ 62.2 µM) |  |  |  |  |  |  |  |  | 
COc1ccc2c(c1)/C(=C(\C)O)C(=O)N2Cc1ccccc1 [Compound 5s, (Z)-1-benzyl-3-(1-hydroxyethylidene)-5-methoxyindolin-2-one] | > 64 | 64 (≈ 217 µM) | 32 (≈ 108 µM) | > 64 | 64 (≈ 217 µM) | > 64 | 16 (≈ 54.2 µM) |  |  |  |  |  |  |  |  |  |  | 
CCN1C(=O)/C(=C(/C)O)c2ccccc21 [Compound 5t, (Z)-1-ethyl-3-(1-hydroxyethylidene) indolin-2-one] | > 64 | 64 (≈ 315 µM) | > 64 | > 64 | > 64 | 32 (≈ 157 µM) | 32 (≈ 157 µM) |  |  |  |  |  |  |  |  |  |  | 
C/C(O)=C1/C(=O)N(Cc2ccccc2)c2ccccc21 [Compound 5u, (Z)-1-benzyl-3-(1-hydroxyethylidene)indolin-2-one] | 64 (≈ 241 µM) |  |  | > 64 | 64 (≈ 241 µM) | 32 (≈ 121 µM) | 2 (≈ 7.54 µM) |  |  |  |  |  |  |  |  |  |  | 
CCCN1C(=O)/C(=C(/C)O)c2ccccc21 [Compound 5v, (Z)-3-(1-hydroxyethylidene)-1-propylindolin-2-one] | > 64 | 64 (≈ 295 µM) | 64 (≈ 295 µM) | > 64 |  | 32 (≈ 147 µM) | 16 (≈ 73.6 µM) |  |  |  |  |  |  |  |  |  |  | 
COc1ccc(CN2C(=O)/C(=C(/C)O)c3ccccc32)cc1 [Compound 5w, (Z)-3-(1-hydroxyethylidene)-1-(4-methoxybenzyl)indolin-2-one] | > 64 | 64 (≈ 217 µM) | > 64 | > 64 | 64 (≈ 217 µM) | 32 (≈ 108 µM) | 8 (≈ 27.1 µM) |  |  |  |  |  |  |  |  |  |  | 
CN1C(=O)/C(=C(\O)c2ccccc2)c2ccccc21 [Compound 10b, (Z)-3-(hydroxy(phenyl)methylene)-1-methylindolin-2-one] |  |  |  |  |  |  |  |  |  | 64 (≈ 255 µM) | 8 (≈ 31.8 µM) | 32 (≈ 127 µM) | > 64 | 32 (≈ 127 µM) | > 64 | 8 (≈ 31.8 µM) |  | 
Cc1ccc(/C(O)=C2/C(=O)N(C)c3ccccc32)cc1 [Compound 10c, (Z)-3-(hydroxy(p-tolyl)methylene)-1-methylindolin-2-one] |  |  |  |  |  |  |  |  |  | 64 (≈ 241 µM) | 2 (≈ 7.54 µM) | 8 (≈ 30.2 µM) | > 64 |  | 64 (≈ 241 µM) | 8 (≈ 30.2 µM) | 16 (≈ 60.3 µM) | 0.5 to 16
CN1C(=O)/C(=C(\O)c2ccc(Cl)cc2)c2ccccc21 [Compound 10e, (Z)-3-((4-chlorophenyl)(hydroxy)methylene)-1-methylindolin-2-one] |  |  |  |  |  |  |  |  |  | 64 (≈ 224 µM) | 2 (≈ 7 µM) | 8 (≈ 28 µM) | > 64 | 16 (≈ 56 µM) | 64 (≈ 224 µM) | 8 (≈ 28 µM) |  | 
CN1C(=O)/C(=C(\O)c2ccc(Br)cc2)c2ccccc21 [Compound 10i, (Z)-3-((4-bromophenyl)(hydroxy)methylene)-1-methylindolin-2-one] |  |  |  |  |  |  |  |  |  | > 64 | 2 (≈ 6.06 µM) | 16 (≈ 48.5 µM) | > 64 | 16 (≈ 48.5 µM) | > 64 | 8 (≈ 24.2 µM) |  | 
